Reference: patent US20250197842A1, “IMPROVING ENZYMATIC CHANNELING EFFICIENCY VIA MIXED NANOPARTICLE SCAFFOLDS WITHIN SELF-ASSEMBLED NANOPARTICLE ENZYME CLUSTERS” (The Government of the United States of America, as …, priority 2023, published 2025)

What was measured:
[1] = target: E. coli BL21(DE3) pyruvate kinase PykA (EC 2.7.1.40), N-terminal (His)6, SEQ ID NO 1, on mixed 525 QD/NPL (Escherichia coli, UniProt P21599); settings: ratio 2 enzyme per NP
Source text: To examine the display of enzymes on mixed NP scaffolds, next examined was the individual activity of Pyka and LDH at a ratio of 2 enzyme per NP in representative samples comprising of three different ratios of 525 QD to NPL, see Table 3.

[2] = target: E. coli BL21(DE3) pyruvate kinase PykA (EC 2.7.1.40), N-terminal (His)6, SEQ ID NO 1, free in solution (Escherichia coli, UniProt P21599); settings: free enzyme (ratio 0), apparent
[3] = target: T1, E. coli BL21(DE3) lactate dehydrogenase LDH (EC 1.1.1.28), N-terminal (His)6, SEQ ID NO 2, assembled on NPLs (Escherichia coli, UniProt P52643); assay: Michaelis Menten kinetics of LDH assembled on NPLs; assay type: biochemical, E. coli strain BL21(DE3); settings: ratio 1 LDH per NPL, apparent
T1 sequence (P52643 with tags, fused parts or gaps): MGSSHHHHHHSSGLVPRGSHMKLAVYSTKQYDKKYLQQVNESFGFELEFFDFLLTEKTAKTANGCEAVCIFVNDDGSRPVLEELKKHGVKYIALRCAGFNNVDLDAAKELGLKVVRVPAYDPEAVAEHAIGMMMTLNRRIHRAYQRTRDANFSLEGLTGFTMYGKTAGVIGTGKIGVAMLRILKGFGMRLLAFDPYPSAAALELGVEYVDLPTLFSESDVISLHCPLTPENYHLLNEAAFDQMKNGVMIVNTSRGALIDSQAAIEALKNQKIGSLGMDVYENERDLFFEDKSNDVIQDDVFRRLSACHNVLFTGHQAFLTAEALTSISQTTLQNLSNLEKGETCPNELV
Source text: (§1) The latter are a quasi-two-dimensional QD-like material. As noted above in the Definitions section, NP or nanomaterial is used interchangeable to refer generically to these materials while QDs and NPLs are used to specify a given type. The NP materials were surface functionalized with the zwitterionic dihydrolipoic acid derivative compact ligand 4 (CL4, see U.S. Pat. No. 8,859,284), which replace the hydrophobic ligands utilized during nanomaterial crystal growth for colloidal stability in aqueous buffers. For enzyme attachment or bioconjugation to the NPs, self-assembly was driven by metal affinity coordination of the enzyme's pendant (His)6-motifs to the QD's ZnS shell.

[4] = target: T2, E. coli BL21(DE3) lactate dehydrogenase LDH (EC 1.1.1.28), N-terminal (His)6, SEQ ID NO 2, assembled on 525 QDs (Escherichia coli, UniProt P52643); assay: Michaelis Menten kinetics of LDH assembled on 525 QDs; assay type: biochemical, E. coli strain BL21(DE3); settings: apparent
T2 sequence (P52643 with tags, fused parts or gaps): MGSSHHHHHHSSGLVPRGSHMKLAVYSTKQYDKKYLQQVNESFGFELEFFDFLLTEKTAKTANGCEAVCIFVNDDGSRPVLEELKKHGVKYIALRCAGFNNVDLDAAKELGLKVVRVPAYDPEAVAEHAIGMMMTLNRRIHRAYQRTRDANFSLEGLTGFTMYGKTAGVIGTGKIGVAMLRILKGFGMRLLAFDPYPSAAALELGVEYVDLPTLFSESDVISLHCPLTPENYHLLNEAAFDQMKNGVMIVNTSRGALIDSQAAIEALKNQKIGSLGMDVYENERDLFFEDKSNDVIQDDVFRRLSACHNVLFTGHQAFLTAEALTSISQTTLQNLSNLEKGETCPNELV
Source text: as §1

[5] = target: T3, E. coli BL21(DE3) lactate dehydrogenase LDH (EC 1.1.1.28), N-terminal (His)6, SEQ ID NO 2, assembled on 641 QDs (Escherichia coli, UniProt P52643); assay: Michaelis Menten kinetics of LDH assembled on 641 QDs; assay type: biochemical, E. coli strain BL21(DE3); settings: apparent
T3 sequence (P52643 with tags, fused parts or gaps): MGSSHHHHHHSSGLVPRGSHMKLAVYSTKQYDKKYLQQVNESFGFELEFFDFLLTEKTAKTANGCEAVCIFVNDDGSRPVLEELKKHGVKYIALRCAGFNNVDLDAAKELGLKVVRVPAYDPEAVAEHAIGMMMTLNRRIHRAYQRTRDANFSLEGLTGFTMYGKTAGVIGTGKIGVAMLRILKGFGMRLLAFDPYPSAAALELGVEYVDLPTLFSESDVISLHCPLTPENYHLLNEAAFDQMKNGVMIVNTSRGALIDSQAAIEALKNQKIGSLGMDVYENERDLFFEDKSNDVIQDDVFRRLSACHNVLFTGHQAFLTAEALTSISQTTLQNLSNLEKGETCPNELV
Source text: as §1

[6] = target: T4, E. coli BL21(DE3) lactate dehydrogenase LDH (EC 1.1.1.28), N-terminal (His)6, SEQ ID NO 2, assembled on 625 QDs (Escherichia coli, UniProt P52643); assay: Michaelis Menten kinetics of LDH assembled on 625 QDs; assay type: biochemical, E. coli strain BL21(DE3); settings: apparent
T4 sequence (P52643 with tags, fused parts or gaps): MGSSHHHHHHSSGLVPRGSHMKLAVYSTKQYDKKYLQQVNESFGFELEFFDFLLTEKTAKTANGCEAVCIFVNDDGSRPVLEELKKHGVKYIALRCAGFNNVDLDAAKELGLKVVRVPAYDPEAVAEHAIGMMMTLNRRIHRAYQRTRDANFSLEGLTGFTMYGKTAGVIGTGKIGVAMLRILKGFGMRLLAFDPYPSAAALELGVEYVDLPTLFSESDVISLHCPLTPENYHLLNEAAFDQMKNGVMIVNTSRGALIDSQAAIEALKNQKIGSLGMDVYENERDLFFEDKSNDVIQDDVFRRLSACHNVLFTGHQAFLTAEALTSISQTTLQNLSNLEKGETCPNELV
Source text: as §1

[7] = target: T5, E. coli BL21(DE3) lactate dehydrogenase LDH (EC 1.1.1.28), N-terminal (His)6, SEQ ID NO 2, free in solution (Escherichia coli, UniProt P52643); assay: Michaelis Menten kinetics of LDH free in solution; assay type: biochemical, E. coli strain BL21(DE3); settings: free enzyme (ratio 0), apparent
T5 sequence (P52643 with tags, fused parts or gaps): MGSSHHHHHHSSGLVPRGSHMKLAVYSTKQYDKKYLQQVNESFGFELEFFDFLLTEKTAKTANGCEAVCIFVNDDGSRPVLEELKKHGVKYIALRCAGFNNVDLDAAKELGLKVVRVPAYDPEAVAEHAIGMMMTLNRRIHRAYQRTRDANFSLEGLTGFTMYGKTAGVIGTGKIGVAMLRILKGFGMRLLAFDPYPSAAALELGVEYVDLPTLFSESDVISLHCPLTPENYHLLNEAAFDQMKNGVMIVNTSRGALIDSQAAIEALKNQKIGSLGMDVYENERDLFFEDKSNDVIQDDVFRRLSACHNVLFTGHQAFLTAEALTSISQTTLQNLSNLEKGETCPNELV

[8] = target: T6, E. coli BL21(DE3) lactate dehydrogenase LDH (EC 1.1.1.28), N-terminal (His)6, SEQ ID NO 2, on mixed 525 QD/NPL (Escherichia coli, UniProt P52643); assay type: biochemical, E. coli strain BL21(DE3); settings: 0.75 nM 525 QD/0.5 nM NPL, ratio 2 per NP, apparent
T6 sequence (P52643 with tags, fused parts or gaps): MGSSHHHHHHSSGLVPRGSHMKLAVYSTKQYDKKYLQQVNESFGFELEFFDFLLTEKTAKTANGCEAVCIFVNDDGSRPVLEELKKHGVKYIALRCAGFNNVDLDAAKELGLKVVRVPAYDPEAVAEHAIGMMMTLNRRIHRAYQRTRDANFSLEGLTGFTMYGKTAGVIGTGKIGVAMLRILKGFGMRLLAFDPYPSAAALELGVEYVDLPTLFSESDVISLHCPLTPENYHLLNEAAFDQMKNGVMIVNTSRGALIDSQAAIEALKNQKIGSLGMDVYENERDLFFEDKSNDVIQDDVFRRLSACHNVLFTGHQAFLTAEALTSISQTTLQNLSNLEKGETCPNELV
Source text: as §1

[9] = substrate: CC(=O)C(=O)O; assay: Michaelis Menten kinetics of LDH free in solution; assay type: biochemical, E. coli strain BL21(DE3); settings: other: free enzyme (ratio 0), apparent, pH 8.0

E. coli BL21(DE3) pyruvate kinase PykA (EC 2.7.1.40), N-terminal (His)6, SEQ ID NO 1, free in solution, sequence (P21599 whole entry, added parts left off): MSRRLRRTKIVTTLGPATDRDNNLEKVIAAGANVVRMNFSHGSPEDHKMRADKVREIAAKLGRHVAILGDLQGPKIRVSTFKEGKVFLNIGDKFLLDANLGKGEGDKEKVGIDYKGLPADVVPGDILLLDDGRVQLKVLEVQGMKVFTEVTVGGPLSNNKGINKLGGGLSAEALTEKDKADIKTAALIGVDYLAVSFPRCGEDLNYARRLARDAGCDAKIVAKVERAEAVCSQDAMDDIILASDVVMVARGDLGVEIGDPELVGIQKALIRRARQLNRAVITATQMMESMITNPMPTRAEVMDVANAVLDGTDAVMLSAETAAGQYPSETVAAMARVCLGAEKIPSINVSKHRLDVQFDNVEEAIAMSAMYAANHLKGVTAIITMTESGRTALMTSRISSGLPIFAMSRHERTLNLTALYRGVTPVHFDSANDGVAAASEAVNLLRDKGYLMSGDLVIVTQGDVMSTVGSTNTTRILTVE
E. coli BL21(DE3) pyruvate kinase PykA (EC 2.7.1.40), N-terminal (His)6, SEQ ID NO 1, on mixed 525 QD/NPL, sequence (P21599 whole entry, added parts left off): as above

With `C=C(OP(=O)(O)O)C(=O)O` [PEP, phosphoenolpyruvic acid] the kcat [1] was 13.3 s⁻¹ and the kcat [2] was 25 s⁻¹.

With `CC(=O)C(=O)O` [pyruvic acid] the kcat [3] was 32.3 s⁻¹, the VMax ([4]; ratio 1 LDH per QD) was 40.0 ± 6 nM/s and the kcat ([4]; ratio 1 LDH per QD) was 15.9 ± 0.4 s⁻¹. The kcat/KM ([4]; ratio 1 LDH per QD) was 0.015 ± 0.0005 M⁻¹ s⁻¹, the VMax ([4]; ratio 2 LDH per QD) was 45.0 ± 1 nM/s and the kcat/KM ([4]; ratio 2 LDH per QD) was 0.02 ± 0.007 M⁻¹ s⁻¹. The VMax ([4]; ratio 4 LDH per QD) was 40.0 ± 1 nM/s, the kcat ([4]; ratio 4 LDH per QD) was 15.5 ± 0.1 s⁻¹ and the kcat/KM ([4]; ratio 4 LDH per QD) was 0.014 ± 0.004 M⁻¹ s⁻¹. The VMax ([4]; ratio 8 LDH per QD) was 57.0 ± 1 nM/s, the kcat/KM ([4]; ratio 8 LDH per QD) was 0.015 ± 0.003 M⁻¹ s⁻¹ and the VMax ([5]; ratio 1 LDH per QD) was 8.3 ± 0.1 nM/s. For the same molecule, the kcat ([5]; ratio 1 LDH per QD) was 3.32 ± 0.1 s⁻¹, the kcat/KM ([5]; ratio 1 LDH per QD) was 0.006 ± 0.002 M⁻¹ s⁻¹ and the VMax ([5]; ratio 2 LDH per QD) was 7.7 ± 0.3 nM/s. For the same molecule, the kcat/KM ([5]; ratio 2 LDH per QD) was 0.0038 ± 0.0007 M⁻¹ s⁻¹, the VMax ([5]; ratio 4 LDH per QD) was 3.6 ± 0.5 nM/s and the kcat ([5]; ratio 4 LDH per QD) was 1.45 ± 0.1 s⁻¹. The kcat/KM ([5]; ratio 4 LDH per QD) was 0.0021 ± 0.001 M⁻¹ s⁻¹, the VMax ([5]; ratio 8 LDH per QD) was 2.6 ± 0.3 nM/s and the kcat ([5]; ratio 8 LDH per QD) was 1.04 ± 0.1 s⁻¹. The kcat/KM ([5]; ratio 8 LDH per QD) was 0.0013 ± 0.0003 M⁻¹ s⁻¹, the VMax ([6]; ratio 1 LDH per QD) was 69.0 ± 1 nM/s and the kcat/KM ([6]; ratio 1 LDH per QD) was 0.021 ± 0.005 M⁻¹ s⁻¹. It also gave a VMax ([6]; ratio 2 LDH per QD) of 58.0 ± 3 nM/s, a kcat/KM ([6]; ratio 2 LDH per QD) of 0.023 ± 0.004 M⁻¹ s⁻¹ and a VMax ([6]; ratio 4 LDH per QD) of 49.0 ± 1 nM/s. The kcat ([6]; ratio 4 LDH per QD) was 19.5 ± 0.1 s⁻¹, the kcat/KM ([6]; ratio 4 LDH per QD) was 0.018 ± 0.005 M⁻¹ s⁻¹ and the VMax ([6]; ratio 8 LDH per QD) was 52.0 ± 1 nM/s. It also gave a kcat ([6]; ratio 8 LDH per QD) of 20.7 ± 0.1 s⁻¹, a kcat/KM ([6]; ratio 8 LDH per QD) of 0.017 ± 0.005 M⁻¹ s⁻¹ and a kcat [7] of 13.3 s⁻¹. The kcat/KM [7] was 0.015 ± 0.007 M⁻¹ s⁻¹, the VMax [8] was 53.0 ± 1 nM/s and the kcat/KM [8] was 0.019 ± 0.002 M⁻¹ s⁻¹.

B1: E. coli BL21(DE3) lactate dehydrogenase LDH (EC 1.1.1.28), N-terminal (His)6, SEQ ID NO 2, free in solution (Escherichia coli K-12) (protein)
chain: MGSSHHHHHHSSGLVPRGSHMKLAVYSTKQYDKKYLQQVNESFGFELEFFDFLLTEKTAKTANGCEAVCIFVNDDGSRPVLEELKKHGVKYIALRCAGFNNVDLDAAKELGLKVVRVPAYDPEAVAEHAIGMMMTLNRRIHRAYQRTRDANFSLEGLTGFTMYGKTAGVIGTGKIGVAMLRILKGFGMRLLAFDPYPSAAALELGVEYVDLPTLFSESDVISLHCPLTPENYHLLNEAAFDQMKNGVMIVNTSRGALIDSQAAIEALKNQKIGSLGMDVYENERDLFFEDKSNDVIQDDVFRRLSACHNVLFTGHQAFLTAEALTSISQTTLQNLSNLEKGETCPNELV
Work on B1 yielded a Km [9] of 900 ± 400 µM and a Vmax [9] of 1.98 µM/min.
